Counter-ions that a name gives are not always drawn. Like-named read-outs stand apart in the source and are kept apart here.
Experiments:
[1] = system: CMV-EE210 cell line containing the epigenetically silenced GFP transgene; test: Cell-based GFP assay for demethylating activity (reactivation of silenced GFP transgene); details: for IC50: read-out: GFP IC50; for GFP Expression Level: test compound 30-50 μM, decitabine at 11 M (so in the source), three days
Protocol: (§1) The demethylating activity of non-bis-quaternary 4-anilinoquinolines were tested in a cell-based GFP (green fluorescent protein) assay. This assay has a GFP gene regulated by the CMV promoter and is sensitive to the methylation of CpG sites within the promoter. A decrease in methylation resulting from exposure to a methylation inhibitor leads to GFP expression and is readily scored. Specifically, the CMV-EE210 cell line containing the epigenetically silenced GFP transgene was used to assay for reactivation of GFP expression by flow cytometry. CMV-EE210 was made by transfecting NIH 3T3 cells with the pTR-UF/UF1/UF2 plasmid (Zolotuhin et al., 1996), which is comprised of pBS(+) (Stratagene, Inc.) containing a cytomegalovirus (CMV) promoter driving a humanized GFP gene adapted for expression in mammalian cells. After transfection, high-level GFP expressing cells were initially selected by FACS analysis and sorting using a MoFlo cytometer (Cytomation, Inc.). […] To screen for reactivation of CMV-EE210, decitabine (at […]) or a test compound (at a concentration of 30-50 μM) was added to complete medium (phenol red free DMEM (Gibco, Life Technologies) supplemented with 10% fetal bovine serum (Hyclone)). Cells were then seeded to 30% confluence (˜5000 cell/well) in 96 well plate containing the test compounds and grown for three days in at 37° C. in 5% CO2. The plates were examined under a fluorescent microscope using a 450-490 excitation filter (13 filter cube, Leica, Deerfield Ill.). Wells were scored g1 positive if 10% of viable cells express GFP, g2 positive if 30% of viable cells express GFP and g3 if greater than 75% of the viable cells express GFP. GFP IC 50 is the concentration of an inhibitor that (like an IC50) is the dose at which the GFP expression level goes from g3 to g1/2.

[2] = molecular target: DNMT1 (Homo sapiens, UniProt P26358); test: Selective depletion of DNMT1 by Western blot in treated HCT116 cells; format: cell-based; design: Protein extracts (equivalent to 100 μg) were isolated from HCT116 cells; endogenous in cells; host or cells: HCT116; details: for % DNMT1 protein level remaining at 5 µM: HCT-116, 5 μM; for % DNMT1 protein level remaining at 10 µM: HCT-116, 10 μM; for % DNMT1 protein level remaining at 100 µM: HCT-116, 100 μM
Description: Biol. 2005, 11, 4727-41.]. For DNMT1, commercially available antibodies from Santa Cruz or New England Biolabs were used.

[3] = system: CMV-EE210 cell line; test: Toxicity (TD50, cell viability) reported with the GFP assay; details: for TD50: Dose at which cells are >50% viable
Protocol: as §1

[4] = dose at which the GFP expression level goes from g3 to g1/2

Sequence of DNMT1 (P26358 whole entry): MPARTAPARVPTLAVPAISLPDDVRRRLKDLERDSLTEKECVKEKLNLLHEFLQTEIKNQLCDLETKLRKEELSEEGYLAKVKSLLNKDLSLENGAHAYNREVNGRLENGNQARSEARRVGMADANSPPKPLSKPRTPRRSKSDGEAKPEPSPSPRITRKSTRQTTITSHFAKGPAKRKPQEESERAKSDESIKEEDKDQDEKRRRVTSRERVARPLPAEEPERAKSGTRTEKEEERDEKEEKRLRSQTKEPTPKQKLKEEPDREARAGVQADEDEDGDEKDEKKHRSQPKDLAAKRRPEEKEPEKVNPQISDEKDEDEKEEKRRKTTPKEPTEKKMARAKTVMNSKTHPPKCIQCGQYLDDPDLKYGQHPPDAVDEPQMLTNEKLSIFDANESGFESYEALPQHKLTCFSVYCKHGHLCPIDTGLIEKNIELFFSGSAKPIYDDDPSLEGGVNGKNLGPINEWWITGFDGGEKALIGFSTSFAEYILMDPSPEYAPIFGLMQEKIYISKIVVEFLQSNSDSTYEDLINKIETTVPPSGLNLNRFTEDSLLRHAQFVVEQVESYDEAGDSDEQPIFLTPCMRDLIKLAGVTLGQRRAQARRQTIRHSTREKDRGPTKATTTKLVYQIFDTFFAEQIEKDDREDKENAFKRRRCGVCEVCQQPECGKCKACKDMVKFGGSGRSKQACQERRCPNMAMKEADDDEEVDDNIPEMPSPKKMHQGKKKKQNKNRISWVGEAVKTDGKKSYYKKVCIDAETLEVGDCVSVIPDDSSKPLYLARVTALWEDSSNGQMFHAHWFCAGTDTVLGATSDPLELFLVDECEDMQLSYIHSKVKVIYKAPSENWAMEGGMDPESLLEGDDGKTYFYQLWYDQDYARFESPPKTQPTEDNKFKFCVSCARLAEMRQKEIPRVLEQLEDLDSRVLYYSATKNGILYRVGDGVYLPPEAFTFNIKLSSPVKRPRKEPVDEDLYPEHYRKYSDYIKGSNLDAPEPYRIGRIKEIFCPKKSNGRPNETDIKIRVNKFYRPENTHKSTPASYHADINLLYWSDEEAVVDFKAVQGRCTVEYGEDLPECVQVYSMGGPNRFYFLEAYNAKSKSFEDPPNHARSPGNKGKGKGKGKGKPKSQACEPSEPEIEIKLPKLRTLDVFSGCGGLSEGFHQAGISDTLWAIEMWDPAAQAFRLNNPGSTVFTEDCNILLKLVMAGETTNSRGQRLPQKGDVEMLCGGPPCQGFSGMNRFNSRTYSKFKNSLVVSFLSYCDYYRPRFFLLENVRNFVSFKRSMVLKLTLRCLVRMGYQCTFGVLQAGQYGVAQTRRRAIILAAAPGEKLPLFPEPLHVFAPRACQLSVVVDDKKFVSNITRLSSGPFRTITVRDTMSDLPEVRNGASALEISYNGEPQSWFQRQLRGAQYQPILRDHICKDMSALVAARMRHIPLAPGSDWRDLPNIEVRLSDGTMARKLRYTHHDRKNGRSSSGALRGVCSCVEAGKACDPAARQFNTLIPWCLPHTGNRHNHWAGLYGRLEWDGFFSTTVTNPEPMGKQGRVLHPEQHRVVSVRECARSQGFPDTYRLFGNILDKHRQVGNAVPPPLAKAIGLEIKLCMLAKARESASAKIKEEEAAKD

Compound | IC50 [1, 4] | GFP Expression Level [1] | % DNMT1 Level ([2]; 5 μM) | % DNMT1 Level ([2]; 10 μM) | % DNMT1 Level ([2]; 100 μM) | TD50 [3] | IC50 [1] | % DNMT1 protein level remaining at 5 µM [2] | % DNMT1 protein level remaining at 10 µM [2] | % DNMT1 protein level remaining at 100 µM [2] | toxicity relative to decitabine [3] | melting point
C[n+]1ccc(Nc2cccc(C(=O)Nc3ccc(Nc4ccnc5ccccc45)cc3)c2)cc1.Cl.[Cl-] [Cpd. C, 4-[4-({3-[(1-methyl-4-pyridiniumyl)amino]benzoyl}amino)anilino]quinolinium dichloride] | 50 µM | g1 (g1 positive if 10% of viable cells express GFP) | 31% | 33% | 34% | 25 µM | – | – | – | – | – | –
C[n+]1ccc(Nc2cccc(C(=O)Nc3ccc(Nc4ccnc5cc([N+](=O)[O-])ccc45)cc3)c2)cc1.Cl.[Cl-] [Cpd. T, 4-[4-({3-[(1-methyl-4-pyridiniumyl)amino]benzoyl}amino)anilino]-7-nitroquinolinium dichloride] | – | – | 64% | 69% | 85% | 25 µM | – | – | – | – | – | –
Cc1cc(Nc2ccc(NC(=O)c3ccc(Nc4ccnc5cc(N(C)C)ccc45)cc3)cc2)nc(N)n1 [Cpd. BB, N-[4-(2-amino-6-methylpyrimidin-4-ylamino)phenyl]-4-(7-(dimethylamino)quinolin-4-ylamino)benzamide hydrochloride] | – | – | – | – | – | 25 µM | 100 µM | 106% | 76% | 32% | less than one-half as toxic as decitabine | –
C[n+]1ccc(Nc2cccc(NC(=O)c3ccc(Nc4ccnc5ccccc45)cc3)c2)cc1 [Cpd. A, 1-methyl-4-(3-{[4-(4-quinolinylamino)benzoyl]amino}anilino)pyridinium chloride] | – | – | – | – | – | 12.5 µM | – | 99% | 117% | 119% | – | –
Cc1cc(Nc2ccc(NC(=O)c3ccc(Nc4ccnc5ccc([N+](=O)[O-])cc45)cc3)cc2)nc(N)n1 [Cpd. H, N-(4-(2-amino-6-methylpyrimidin-4-ylamino)phenyl)-4-(6-nitroquinolin-4-ylamino)benzamide hydrochloride] | – | – | – | – | – | 12.5 µM | – | 132% | 25% | 24% | – | –
CN(C)c1ccc2c(Nc3ccc(C(=O)Nc4ccc(Nc5cc[n+](C)cc5)cc4)cc3)ccnc2c1.Cl.[Cl-] [Cpd. AA] | – | g2 (g2 positive if 30% of viable cells express GFP) | 136% | 101% | 32% | 25 µM | – | – | – | – | – | –
Cc1cc(Nc2ccc(NC(=O)c3ccc(Nc4ccnc5ccccc45)cc3)cc2)nc(N)n1 [Cpd. E, N-(4-(2-amino-6-methylpyrimidin-4-ylamino)phenyl)-4-(quinolin-4-ylamino)benzamide hydrochloride] | – | g1 (g1 positive if 10% of viable cells express GFP) | 11% | 0.5% | – | 25 µM | 12 µM | – | – | – | – | –
Nc1ncn([C@H]2C[C@H](O)[C@@H](CO)O2)c(=O)n1 [Decitabine, 5-aza-2′-deoxycytidine, reference compound] | 0.39 µM | – | – | – | – | 12.5 µM | – | 0 to 5% | – | – | – | –
C[n+]1ccc(Nc2ccc(C(=O)Nc3ccc(Nc4ccnc5ccccc45)cc3)cc2)cc1.Cl.[Cl-] [Cpd. D, 4-[4-({4-[(1-methyl-4-pyridiniumyl)amino]benzoyl}amino)anilino]quinolinium dichloride] | – | g1 (g1 positive if 10% of viable cells express GFP) | 131% | 103% | 74% | 12.5 µM | – | – | – | – | – | –
C[n+]1ccc(Nc2cccc(NC(=O)c3ccc(Nc4ccnc5ccc([N+](=O)[O-])cc45)cc3)c2)cc1 [Cpd. F, 1-methyl-4-(3-{[4-(6-nitro-4-quinolinylamino)benzoyl]amino}anilino)pyridinium chloride] | – | – | – | – | – | 25 µM | – | 145% | 210% | 155% | – | –
C[n+]1ccc(Nc2cccc(C(=O)Nc3ccc(Nc4ccnc5ccc([N+](=O)[O-])cc45)cc3)c2)cc1 [Cpd. J, 4-[4-({3-[(1-methyl-4-pyridiniumyl)amino]benzoyl}amino)anilino]-6-nitroquinolinium dichloride] | – | – | – | – | – | 12.5 µM | – | 101% | 89% | 59% | – | > 300 °C
C[n+]1ccc(Nc2cccc(C(=O)Nc3ccc(Nc4ccnc5ccc(N)cc45)cc3)c2)cc1 [Cpd. M, 6-amino-4-[4-({3-[(1-methyl-4-pyridiniumyl)amino]benzoyl}amino)anilino]quinolinium dichloride] | – | – | – | – | – | 25 µM | – | 30% | 40% | 43% | – | > 310 °C
C[n+]1ccc(Nc2ccc(C(=O)Nc3ccc(Nc4ccnc5cc([N+](=O)[O-])ccc45)cc3)cc2)cc1.Cl.[Cl-] [Cpd. U, 4-[4-({4-[(1-methyl-4-pyridiniumyl)amino]benzoyl}amino)anilino]-7-nitroquinolinium dichloride] | – | – | 97% | 53% | 32% | 25 µM | – | – | – | – | – | –
C[n+]1ccc(Nc2cccc(NC(=O)c3ccc(Nc4ccnc5cc([N+](=O)[O-])ccc45)cc3)c2)cc1 [Cpd. R, 1-methyl-4-[3-({4-[(7-nitro-4-quinolinyl)amino]benzoyl}amino)anilino]pyridinium chloride] | – | – | – | – | – | 25 µM | – | 160% | 170% | 165% | – | –
C[n+]1ccc(Nc2cccc(NC(=O)c3ccc(Nc4ccnc5cc(N)ccc45)cc3)c2)cc1 [Cpd. V, 4-[3-({4-[(7-ammonio-4-quinolinyl)amino]benzoyl}amino)anilino]-1-methylpyridinium dichloride] | – | – | – | – | – | 12.5 µM | – | 112% | 110% | 124% | – | 281 to 285 °C
C[n+]1ccc(Nc2ccc(NC(=O)c3ccc(Nc4ccnc5ccccc45)cc3)cc2)cc1 [Cpd. B, 1-methyl-4-(4-(4-(quinolin-4-ylamino)benzamido)phenylamino)pyridinium chloride hydrochloride] | – | – | – | – | – | 25 µM | – | 102% | 98% | 81% | – | –
1-methyl-4-[4-(4-{7-nitroquinolin-4-ylamino}benzamido)-phenylamino]pyridinium dichloride [Cpd. S] | – | – | 87% | 101% | 69% | 25 µM | – | – | – | – | – | –
C/C(=N\N=C(N)N)c1ccc(NC(=O)c2ccc(Nc3ccnc4ccc([N+](=O)[O-])cc34)cc2)cc1 [Cpd. I, (E)-N-[4-{1-([diaminomethylene]hydrazono)ethyl}phenyl]-4-(6-nitroquinolin-4-ylamino)benzamide hydrochloride] | – | – | – | – | – | 25 µM | – | 27% | 80% | 48% | – | –
CN(C)c1ccc2c(Nc3ccc(NC(=O)c4ccc(Nc5cc[n+](C)cc5)cc4)cc3)ccnc2c1.Cl.[Cl-] [Cpd. DD, 7-(dimethylamino)-4-[4-({4-[(1-methyl-4-pyridiniumyl)amino]benzoyl}amino)aniline]quinolinium dichloride] | – | – | 90% | 74% | 52% | 25 µM | – | – | – | – | – | –
C[n+]1ccc(Nc2cccc(NC(=O)c3ccc(Nc4ccnc5ccc(N)cc45)cc3)c2)cc1 [Cpd. K, 4-[3-({4-[(6-ammonio-4-quinolinyl)amino]benzoyl}amino)anilino]-1-methylpyridinium dichloride] | – | – | – | – | – | 12.5 µM | – | 98% | 92% | 37% | – | 270 to 274 °C
